Data on 17 molecules can be found in US11129807B2, “Methods of treating schizophrenia” (Sunovion Pharmaceuticals Inc., priority 2017, dated 2021).

In test [1] the test system is Pre-pulse Inhibition (PPI) in Mice. Put plainly: Pre-pulse inhibition (PPI) of startle in mice.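 Also: plus grades count prepulse intensities with significant PPI increase at P below 0.05 and minus means no change.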 The class given is in vivo. The conditions noted are these: 30 min prior to PPI test, male C57Bl/6J mice, vs. vehicle. Here is the method: (§1) Anti-psychotic like activity of the compounds was evaluated in mice using the PCP hyperactivity and Pre-Pulse Inhibition (PPI) models of schizophrenia.
(§2) Methods: Animals: Male C57Bl/6J mice from Jackson Laboratories (Bar Harbor, Me.) were used. Upon receipt, mice were assigned unique identification numbers (tail marked) and were group housed with 4 mice per cage in OptiMICE ventilated cages. All animals remained housed in groups of four during the remainder of the study. All mice were acclimated to the colony room for at least two weeks prior to testing. During the period of acclimation, mice were examined on a regular basis, handled, and weighed to assure adequate health and suitability. Animals were maintained on a 12/12 light/dark cycle. The room temperature was maintained between 20 and 23° C. with a relative humidity maintained between 30% and 70%. Chow and water were provided ad libitum for the duration of the study. In each test, animals were randomly assigned across treatment groups.
Prepulse Inhibition of Startle: The acoustic startle is an unconditioned reflex response to an external auditory stimulus. Prepulse inhibition of startle (PPI) refers to the reduction in the startle response caused by the presentation of a low-intensity auditory stimulus prior to the startle stimulus. The PPI paradigm is used for the study of schizophrenia and antipsychotic action due to the similarities between the results from human and rodent studies. […] Various psychotomimetic drugs such as PCP can disrupt PPI. In mice, antipsychotic drugs such as clozapine can reverse the disruption of PPI induced by PCP.
Mice were placed in the PPI chambers (Med Associates) for a 5 min session of white noise (70 dB) habituation. After the habituation period the test session was initiated. The session started with a habituation block of 6 presentations of the startle stimulus alone, followed by 10 PPI blocks, each of which consisted of 6 different types of trials. Trial types were: ‘null’ (no stimuli), ‘startle’ (120 dB), ‘startle plus prepulse’ (4, 8 and 12 dB over background noise, i.e., 74, 78 or 82 dB) and ‘prepulse’ (82 dB). Trial types were presented in a random order within each block. Each trial started with a 50 ms stimulus-free period during which baseline movements were recorded. This was followed by a subsequent 20 ms period during which the prepulse stimulus was presented and responses to the prepulse measured. After a further 100 ms period, the startle stimulus was presented for 40 ms and responses recorded for 100 ms from startle onset. Responses were sampled every ms. The inter-trial interval was variable with an average of 15 s (range from 10 to 20 s). In ‘startle’ trials the basic auditory startle response was measured. The basic startle response was calculated as the mean startle response of all ‘startle’ trials (i.e., excluding the first habituation block). In ‘startle plus prepulse’ trials the degree of inhibition of the normal startle was calculated and expressed as a percentage of the basic startle response.
Mice were treated with vehicle, haloperidol (1 mg/kg; i.p) or test compound 30 min prior to PPI test. The PPI enclosures were cleaned following each test.

Test [2] concerns PCP-Induced Hyperactivity Responses in Mice. The test is described as follows: PCP-induced hyperactivity (open field) in mice.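 Also: plus means significant inhibition of PCP hyperactivity at P below 0.05 and minus means none.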 The conditions noted are these: male C57Bl/6J mice, vs. vehicle + PCP. The format is in vivo. As to the method:
as §1, §2
The analysis was configured to divide the open field into a center and periphery zone. Distance traveled was measured from horizontal beam breaks as the mouse moved whereas rearing activity was measured from vertical beam breaks.
Mice were injected with vehicle, test compound, or clozapine (1 mg/kg; i.p) and placed in the OF chambers for 30 min measurement of baseline activity. Mice were then injected with either water or PCP (5 mg/kg; i.p) and placed back in the OF chambers for a 60-minute session. At the end of each OF test session the OF chambers were thoroughly cleaned.

Setting [3] is: 0.3 mg/kg Compound + PCP (5 mg/kg; i.p).
Setting [4] is: 1 mg/kg Compound + PCP (5 mg/kg; i.p).
[5] abbreviates: 3 mg/kg Compound + PCP (5 mg/kg; i.p).
The mark [6] stands for this setting: 10 mg/kg Compound + PCP (5 mg/kg; i.p).
Where [7] appears, read: 30 mg/kg Compound + PCP (5 mg/kg; i.p).
Setting [8] is: 100 mg/kg Compound + PCP (5 mg/kg; i.p).

As to `CNC[C@H]1OCCc2scc(C)c21` [Compound 131], the “Effect on Pre-pulse Inhibition (PPI)” value in test [1] (3 mg/kg), in test [1] (10 mg/kg) and in test [1] (30 mg/kg) was “−” throughout. In addition, the “Total Distance Traveled (cm)” value in test [2] (setting [3]) is reported as “−”; in test [2] (setting [4]), “+”; in test [2] (setting [5]), “+”.
As for `C[C@H](N)[C@@H]1OCCc2ccsc21` [Compound 213], the “Effect on Pre-pulse Inhibition (PPI)” value was “−” in test [1] (3 mg/kg), “+++” in test [1] (10 mg/kg) and “+++” in test [1] (30 mg/kg). For the same molecule, the “Total Distance Traveled (cm)” value in test [2] (setting [3]), in test [2] (setting [4]), in test [2] (setting [5]), in test [2] (setting [6]) and in test [2] (setting [7]) was “+” throughout.
For the molecule `CNC[C@H]1OCCc2sccc21` [Compound 28], the “Effect on Pre-pulse Inhibition (PPI)” value in test [1] (10 mg/kg) is on record as “−”; in test [1] (30 mg/kg) it was “+++”; in test [1] (100 mg/kg), “+++”. Moreover, the “Total Distance Traveled (cm)” value in test [2] (setting [3]), in test [2] (setting [4]), in test [2] (setting [5]), in test [2] (setting [6]), in test [2] (setting [7]) and in test [2] (setting [8]) was “+” in each case.
On to `c1cc2c(s1)CCO[C@H]2[C@H]1CCCN1` [Compound 102], for which the “Effect on Pre-pulse Inhibition (PPI)” value in test [1] (3 mg/kg), in test [1] (10 mg/kg) and in test [1] (30 mg/kg) was “−” each time. For the same molecule, the “Total Distance Traveled (cm)” value is on record as “−” in test [2] (setting [3]); “+” in test [2] (setting [4]); “+” in test [2] (setting [5]); “+” in test [2] (setting [6]); “+” in test [2] (setting [7]).
With `NC[C@@H]1OCCc2ccsc21` [Compound 127], the “Effect on Pre-pulse Inhibition (PPI)” value in test [1] (3 mg/kg) is on record as “+++”; in test [1] (10 mg/kg), “−”; in test [1] (30 mg/kg), “+++”. Moreover, the “Total Distance Traveled (cm)” value was “−” in test [2] (setting [3]); “−” in test [2] (setting [4]); “+” in test [2] (setting [5]); “+” in test [2] (setting [6]); “−” in test [2] (setting [7]).
Consider `CNCC1OCCc2c(C)csc21` (stereo not drawn) [Compound 140], for which the “Effect on Pre-pulse Inhibition (PPI)” value in test [1] (10 mg/kg), in test [1] (30 mg/kg) and in test [1] (100 mg/kg) was “−” throughout. For the same molecule, the figures for the “Total Distance Traveled (cm)” value in test [2] (setting [6]), in test [2] (setting [7]) and in test [2] (setting [8]) were “−”, “−” and “+”, respectively.
For `CNC[C@H]1OCCc2sc(C)cc21` [Compound 58], the results for the “Effect on Pre-pulse Inhibition (PPI)” value in test [1] (10 mg/kg), in test [1] (30 mg/kg) and in test [1] (100 mg/kg) were “+++”, “+” and “+++”, respectively. In addition, the “Total Distance Traveled (cm)” value in test [2] (setting [6]), in test [2] (setting [7]) and in test [2] (setting [8]) was “+” each time.
As for `NCC1OCCc2sccc21` (stereo not drawn) [Compound 1], the “Effect on Pre-pulse Inhibition (PPI)” value in test [1] (10 mg/kg) is reported as “−”; in test [1] (30 mg/kg) it was “+++”; in test [1] (100 mg/kg), “+++”. Also, the “Total Distance Traveled (cm)” value in test [2] (setting [6]) was “+”; in test [2] (setting [7]) it was “+”; in test [2] (setting [8]), “−”.
Regarding `c1cc2c(s1)[C@@H]([C@H]1CCCN1)OCC2` [Compound 205], the “Effect on Pre-pulse Inhibition (PPI)” value in test [1] (3 mg/kg) is listed as “−”; in test [1] (10 mg/kg) it was “−”; in test [1] (30 mg/kg), “+++”. Besides, the “Total Distance Traveled (cm)” value in test [2] (setting [3]), in test [2] (setting [4]), in test [2] (setting [5]), in test [2] (setting [6]) and in test [2] (setting [7]) was “+” in each case.
As for `CCNC[C@@H]1OCCc2sccc21` [Compound 310], the “Effect on Pre-pulse Inhibition (PPI)” value in test [1] (3 mg/kg) is listed as “−”; in test [1] (10 mg/kg), “−”; in test [1] (30 mg/kg) it was “+++”. For the same molecule, the “Total Distance Traveled (cm)” value in test [2] (setting [3]) is “+”; in test [2] (setting [4]), “−”; in test [2] (setting [5]), “−”; in test [2] (setting [6]), “+”; in test [2] (setting [7]), “+”.
`CNC[C@@H]1OCCc2sccc21` [Compound 27]: the “Effect on Pre-pulse Inhibition (PPI)” value in test [1] (10 mg/kg), in test [1] (30 mg/kg) and in test [1] (100 mg/kg) was “−” throughout. Also, the “Total Distance Traveled (cm)” value in test [2] (setting [3]) is reported as “−”; in test [2] (setting [4]), “−”; in test [2] (setting [5]), “−”; in test [2] (setting [6]) it was “+”; in test [2] (setting [7]), “+”; in test [2] (setting [8]), “+”.
In the case of `CNC[C@@H]1OCCc2scc(C)c21` [Compound 130], the “Effect on Pre-pulse Inhibition (PPI)” value in test [1] (3 mg/kg), in test [1] (10 mg/kg) and in test [1] (30 mg/kg) was “−” each time. The “Total Distance Traveled (cm)” value in test [2] (setting [3]) is “−”; in test [2] (setting [4]), “−”; in test [2] (setting [5]), “+”; in test [2] (setting [6]), “+”; in test [2] (setting [7]), “+”; in test [2] (setting [8]) it was “+”.
In the case of `CNCC1OCCc2sc(C)cc21` (stereo not drawn) [Compound 5], the “Effect on Pre-pulse Inhibition (PPI)” value in test [1] (10 mg/kg) was “−”; in test [1] (30 mg/kg), “+++”; in test [1] (100 mg/kg), “+++”. The “Total Distance Traveled (cm)” value in test [2] (setting [6]), in test [2] (setting [7]) and in test [2] (setting [8]) was “+” in each case.
Regarding `CCNC[C@H]1OCCc2sccc21` [Compound 311], the “Effect on Pre-pulse Inhibition (PPI)” value in test [1] (3 mg/kg) is reported as “−”; in test [1] (10 mg/kg), “−”; in test [1] (30 mg/kg) it was “+++”. In addition, the “Total Distance Traveled (cm)” value in test [2] (setting [3]) was “−”; in test [2] (setting [4]), “+”; in test [2] (setting [5]) it was “+”; in test [2] (setting [6]) it was “+”; in test [2] (setting [7]), “+”.
Turning to `c1cc2c(s1)CCO[C@@H]2[C@@H]1CCCN1` [Compound 119], the “Total Distance Traveled (cm)” value in test [2] (setting [6]), in test [2] (setting [7]) and in test [2] (setting [8]) was “+” throughout.
As to `[2H]C([2H])([2H])NC[C@H]1OCCc2sccc21` [Compound 158], the “Effect on Pre-pulse Inhibition (PPI)” value in test [1] (3 mg/kg) is listed as “−”; in test [1] (10 mg/kg) it was “−”; in test [1] (30 mg/kg), “−”; in test [1] (100 mg/kg), “+++”. Besides, the “Total Distance Traveled (cm)” value in test [2] (setting [4]), in test [2] (setting [5]), in test [2] (setting [6]), in test [2] (setting [7]) and in test [2] (setting [8]) was “+” throughout.
For `CCNCC1OCCc2sccc21` (stereo not drawn) [Compound 13], the figures for the “Effect on Pre-pulse Inhibition (PPI)” value in test [1] (10 mg/kg), in test [1] (30 mg/kg) and in test [1] (100 mg/kg) were “−”, “−” and “+++”, respectively.
